Laboratory results as given in patent US20250127698A1, “Hair Perming Compositions With Amine Derivatives” (ELC Management LLC, priority 2023, published 2025).

Experiments:
[1] = Curl efficiency after hair curling treatment; set-up: species or system human; % Change In Curl Efficiency From 1 to 8 Washes: concentration or dose not given beside the values; conditions: Type 1 Chinese hair; for Curl Efficiency (%) After Treatment, 1 Wash and Dry: 1 wash with 5% SDS solution; for Curl Efficiency (%) After Treatment, 8 Washes and Dry: equivalent of 8 washes with 5% SDS solution
From the text: (§1) The ability of each test composition to curl hair was established by measuring “curl efficiency”. Curl efficiency is a measure of curl tightness following a hair curling treatment. The higher the efficiency, the tighter the curl. We used a well-known method of measuring curl efficiency, wherein a portion of untreated straight hair of known length, Lu, is secured on an arrangement of pegs to form a sine wave pattern of five cycles, crest-to-crest. Because the pegs are fixed, the ideal length, Li, of the portion of hair when arranged into the five-cycle wave pattern, is known. Starting with a straight swatch of hair of length Lu, the ideal outcome would be a curled swatch of hair with a length of Li. Curl efficiency is a measure of how closely the ideal is attained.
(§2) Two types of hair samples were tested for curling; mixed sourced virgin Type 1Caucasian hair, and single sourced virgin Type 1 hair. For straightening, mixed sourced virgin Type 2C (very wavy) Caucasian hair was tested. Hair straightening test samples were prepared by collecting hair fibers into tresses, and clamping each tress at both ends. For those test samples that were to undergo a straightening treatment, the length, Lu, was measured between two previously determined points.
(§3) Each hair tress was wetted (reverse osmosis water). For curling, each hair tress was wound along a peg board to form a sine wave pattern of five cycles, as described above. For straightening, each hair tress was held on a board in a straight conformation, tension was applied, and the ends of the tress were secured. All test samples (curling or straightening) were allowed to dry before proceeding. Each board with a hair tress test sample was dipped for 10 seconds into a beaker with one of the hair perming compositions. After removing a board from solution, it was immediately placed in an oven for 20 minutes at 37° C. (normal body temperature). The test sample was removed from the oven, and rinsed for five minutes with 37° C. water, being careful not to allow the running water to fall directly on the hair tresses. After blotting with a paper towel, test samples were allowed to rest for five minutes at room temperature, for air oxidation to occur. The hair straightening test samples were removed from the board, blow dried and flat ironed at 200° C., which is commonly done in salon practice. At this point, the ideal length, Li, was measured between the two previously determined point mentioned above. Thereafter, each sample was rebound to the board.
(§4) Each bound hair tress was submerged for ten seconds in a 2% solution of H2O2 to neutralize the reducing agent and promote S-S bond formation, so that the hair tress would retain a desired shape (sine wave pattern or straight) when removed from the board. Each hair tress rested at room temperature for about five minutes, then was rinsed under 37° C. running water for five minutes, and subsequently blotted with a paper towel. Each test sample hair tress was removed from the board, laid on a flat surface, and allowed to dry. The fully permed dry tresses were washed in 5% SDS (sodium dodecyl sulfate) solution (which simulates salon practice) and allowed to dry overnight.
(§5) For the curling test samples, the length, Lt, of five waves, crest to crest was measured. For the straightening test samples, the final length, Lt, was measured between the two previously determined points. At this point, differential scanning calorimetry (DSC) measurements were made on a portion of each hair tress test sample. Also, for longevity performance, each tress was subjected to the equivalent of eight hand washings in 5% SDS solution using the GyroWash color fastness to laundering tester, and allowed to dry, before another length measurement, Lt, was made.
(§6) Curl efficiencies were computed using Equation 1.
(§7) [formula] • Lu=length of the untreated hair tress • Lt=crest-to-crest length of the five-wave portion of the treated hair tress • Li=ideal length of curled hair […]

[2] = DSC keratin denaturation temperature change after curling treatment; conditions: for ΔT (TUntreated−TAlkalizer, keratin denaturation temperature): Type 1 Caucasian hair after curling treatment, larger ΔT indicates more damage; for damage to hair (in words): hair curling treatment, Type 1 Caucasian hair
[3] = as above; set-up: species or system human; conditions: for ΔT (TUntreated−TAlkalizer, keratin denaturation temperature): Type 1 Chinese hair after curling treatment, larger ΔT indicates more damage; for damage to hair (in words): hair curling treatment, Type 1 Chinese hair
From the text: (§8) This damage occurs at the level of keratin proteins.
(§9) Untreated hair was used as a control.
(§10) A larger ΔT indicates more damage.

[4] = Curl efficiency after hair curling treatment; set-up: species or system human; conditions: Type 1 Caucasian hair; for Curl Efficiency (%) After Treatment, 1 Wash and Dry: 1 wash with 5% SDS solution; for Curl Efficiency (%) After Treatment, 8 Washes and Dry: equivalent of 8 washes with 5% SDS solution
From the text: as §1, §2, §3, §4, §5, §6, §7

[5] = DSC keratin denaturation temperature change after straightening treatment; set-up: species or system human; conditions: for ΔT (TUntreated−TAlkalizer, keratin denaturation temperature): Type 3 Caucasian hair after straightening, larger ΔT indicates more damage; for damage to hair (in words): hair straightening treatment, Type 3 Caucasian hair
From the text: as §8, §9, §10

[6] = pH of hair perming composition; assay type: physicochemical; conditions: for pH: hair perming composition: base of Table 2 (7.50% thioglycolic acid) plus alkalizer, same molar percentage of alkalizer
From the text: For testing, we prepared the hair perming compositions shown by Tables 2 and 3, below. […] All compositions contain the same molar percentage of alkalizer, the water content being adjusted accordingly.

[7] = Straightening efficiency after hair straightening treatment; set-up: species or system human; conditions: Type 2C Caucasian hair; for Straightening Efficiency (%) After Treatment, 1 Wash and Dry: 1 wash with 5% SDS solution
From the text: The ability of each test composition to straighten curly hair was established by measuring “straightening efficiency”. Straightening efficiency represents the degree to which curly hair is made straight by a hair straightening treatment. We start with a curly, untreated hair tress of length Lu. The tress has an ideal straight length of Li, which is the length of the untreated tress when flat ironed to its maximum, straight length. After treatment the tress has a length of Lt. Straightening efficiency is the gain in length as a percentage of the maximum possible gain in length. […] A straightening efficiency of 100% means that the treated tress retained the maximum possible length.
as §2, §3, §4, §5
Straightening efficiencies were computed using Equation 2.
[formula] • Lu=length of the untreated hair tress • Lt=length of treated hair tress • Li=ideal length of straightened hair
(Li−Lu) represents the maximum possible increase in length as a result of treatment. […]

| Compound | % Change In Curl Efficiency From 1 to 8 Washes [1] | Curl Efficiency (%) After Treatment, 1 Wash and Dry [1] | Curl Efficiency (%) After Treatment, 8 Washes and Dry [1] | ΔT (TUntreated−TAlkalizer, keratin denaturation temperature) [2] | ΔT (TUntreated−TAlkalizer, keratin denaturation temperature) [3] | % Change In Curl Efficiency From 1 to 8 Washes [4] | Curl Efficiency (%) After Treatment, 1 Wash and Dry [4] | Curl Efficiency (%) After Treatment, 8 Washes and Dry [4] | ΔT (TUntreated−TAlkalizer, keratin denaturation temperature) [5] | pH of alkalizer composition ([6]; Table 7) | pH of alkalizer composition ([6]; Table 8) | pH of alkalizer composition ([6]; Table 9) | pH [6] | Straightening Efficiency (%) After Treatment, 1 Wash and Dry [7] | damage to hair (in words) [3] | straightening (in words) [7] | damage to hair (in words) [2] | damage to hair (in words) [5] | other results |
| --- | --- | --- | --- | --- | --- | --- | --- | --- | --- | --- | --- | --- | --- | --- | --- | --- | --- | --- | --- |
| CCC(N)(CO)CO [AEPD, 2-Amino-2-ethyl-1,3-propanediol] | −15.09% | 53.93% | 45.79% | 2.36 °C | 1.31 C. ° | −6.40% | 43.93% | 41.12% | 1.13 °C | 9.09 | 9.09 | 8.98 | 9.09 | 94.70% | – | – | – | – | – |
| CC(N)(CO)CO [AMPD, 2-Amino-2-methyl-1,3-propanediol] | – | – | – | 1.66 °C | 0.68 C. ° | – | – | – | 0.32 °C | 9.09 | 9.04 | 9.04 | 9.04 | – | less damage than ammonium hydroxide | performed better than ammonium hydroxide and MEA, but not as well as AMP | – | – | – |
| N.O [Ammonium hydroxide, reference compound] | – | – | – | – | 0.80 C. ° | – | – | – | – | 9.14 | 9.14 | 9.14 | 9.14 | – | – | – | – | – | – |
| CN(C)C(C)(C)CO [DMAMP, 2-Dimethylamino-2-methyl-1-propanol] | −17.06% | 58.60% | 48.60% | 6.06 °C | 5.78 C. ° | −20.91% | 44.86% | 35.48% | 1.43 °C | 10.18 | 10.18 | 10.18 | 10.18 | 93.75% | caused the most damage | – | almost as much damage as NaOH | comparatively little damage | performance in curling, curl retention and degree of damage (FIG. 2, in words) [1]: did not perform as well as ammonium hydroxide, AMP or MEA; performance in curling, curl retention and degree of damage (FIG. 1, in words) [4]: did not perform as well as ammonium hydroxide, AMP or MEA; performance in straightening and degree of damage versus ammonium hydroxide, AMP and MEA (FIG. 3, in words) [7]: did perform well |
| NCCO [MEA, Monoethanolamine, reference compound] | −13.43% | 64.77% | 56.07% | – | – | −7.41% | 50.47% | 46.73% | – | 9.40 | 9.40 | 9.40 | 9.40 | 65.38% | – | – | – | – | – |
| NC(CO)(CO)CO [Tris, Tromethamine] | – | – | – | 1.11 °C | −0.77 C. ° | – | – | – | 0.07 °C | 8.36 | 8.36 | 8.36 | 8.36 | – | less damage than ammonium hydroxide | performed better than ammonium hydroxide and MEA, but not as well as AMP | less damage than ammonium hydroxide | less damage than ammonium hydroxide | – |
